Where two headings read alike, the source gives them in different places.
Assay: Ocular tissue concentrations (aqueous humor, vitreous humor, iris, retina, choroid, cornea) after topical ocular, subcutaneous and intravitreal administration
Assay type: in vivo, New Zealand White rabbits
Conditions: for concentration at 0.5 h / concentration at 0.5 hr / concentration at 1 h / concentration at 2 h / concentration at 4 h: subcutaneous, 5 mg/kg/dose; for Cornea Conc. (ng/mL) OS: TABLE 16: Cornea homogenate
Experimental: To measure the concentration of Compound 1 in plasma and ocular tissues following topical ocular, subcutaneous, and intravitreal administration, New Zealand White rabbits were administered Compound 1, and plasma and ocular samples were collected at pre-determined time points. Compound 1 formulations were prepared fresh on each day of dosing.
Ocular tissue samples from both eyes of each animal were collected and weights were recorded. Plasma and ocular tissue sample concentrations of Compound 1 were determined by LC-MS/MS.
New Zealand White rabbits weighing 2.5 to 3.5 kg were used on this study. Rabbits were housed one per cage. Animals were not fasted and only healthy animals with no ocular illness were used. Two rabbits per group were sacrificed at each of four ocular tissue sampling time points for a total of eight rabbits per group.
Animals were anesthetized for ocular (topical) and intravitreal dosing following the 12IA7 IACUC protocol. Each rabbit received a bolus dose of test formulation either via topical ocular administration 3 times daily on Days 1 and 2 (at 0, 6, and 12 hours), and once on Day 3 (at 0 hours) into both eyes; via intravitreal administration into both eyes once on Day 1 (at 0 hours); or via subcutaneous administration 2 times daily on Days 1 and 2 (at 0 and 8 hours) and once daily on Day 3 (at 0 hours). Doses were given within an approximately 1 hour window each day where applicable.
On Day 1, for intravitreal administration, or on Day 3, for topical ocular and subcutaneous administration, at the appropriate ocular tissue collection time points, animals were euthanized and both eyes were enucleated immediately. Following enucleation, each eye was rinsed with phosphate-buffered saline. Ocular tissue samples from both eyes of each animal were collected at predetermined time points and weights were recorded. All the samples were frozen immediately on dry ice, and stored at −60° C. to −80° C. pending bioanalysis.
An LC-MS/MS method was developed for the determination of Compound 1 in rabbit aqueous tissues (plasma, aqueous and vitreous humor) and solid ocular tissue samples. A pre-study standard curve was analyzed to determine the specificity, range, and lower limit of quantitation of the method. Plasma and tissue homogenate study samples were extracted and analyzed. All the samples were treated identically to the standards.
One eight-point standard curve was used in each analytical batch. To be accepted, each batch must have had at least five of eight standards with accuracy within ±20% of nominal, except at the lower limit of quantification (LLOQ), where ±25% was acceptable.
Concentration versus time data is plotted in FIGS. 3-16. All data are expressed as ng/g of the free drug. Samples that were below the limit of quantitation (0.2 ng/mL) were not used in the calculation of averages.

In the case of `COC(=O)N[C@@H](Cc1ccccc1)C(=O)N[C@@H](Cc1ccc(NS(=O)(=O)O)cc1)c1csc(-c2cccs2)n1` [Compound 1], the concentration at 48 h (New Zealand White, rabbit, retina, other: intravitreal, 2.5 mg/eye, Retina, 48 hr, sodium salt, intravitreal 2.5 mg/eye, Group 4, read-out: Retina Avg.) is reported as 72600 ng/g, the concentration at 72 h (New Zealand White, rabbit, retina, other: intravitreal, 2.5 mg/eye, Retina, OD, sodium salt, intravitreal 2.5 mg/eye, Group 4, read-out: Retina Conc. (ng/g) OD) is reported as 8250 ng/g and the concentration at 72 h (New Zealand White, rabbit, retina, other: intravitreal, 2.5 mg/eye, Retina, OS, sodium salt, intravitreal 2.5 mg/eye, Group 4, read-out: Retina Conc. (ng/g) OS) is reported as 4070 ng/g. The concentration at 72 h (New Zealand White, rabbit, retina, other: intravitreal, 2.5 mg/eye, Retina, average, intravitreal 2.5 mg/eye (group 5), read-out: Avg.) was 109000 ng/g, the concentration at 72 h (New Zealand White, rabbit, retina, other: intravitreal, 2.5 mg/eye, Retina, left eye, intravitreal 2.5 mg/eye (group 5), individual animals, read-out: Conc. (ng/g) OS) was 119000 ng/g and the concentration at 72 h (New Zealand White, rabbit, retina, other: intravitreal, 2.5 mg/eye, Retina, right eye, intravitreal 2.5 mg/eye (group 5), individual animals, read-out: Conc. (ng/g) OD) was 109000 ng/g. The concentration at 72 h (New Zealand White, rabbit, retina, other: intravitreal, 2.5 mg/eye, Retina, sodium salt, intravitreal 2.5 mg/eye, Group 4, read-out: Retina Avg.) was 6060 ng/g, the concentration at 0.5 h (New Zealand White, rabbit, retina, Retina, OD, sodium salt, subcutaneous 5 mg/kg/dose, Group 2, read-out: Retina Conc. (ng/g) OD) was 30.5 ng/g and the concentration at 0.5 hr (New Zealand White, rabbit, retina, Retina, OS, sodium salt, subcutaneous 5 mg/kg/dose, Group 2, read-out: Retina Conc. (ng/g) OS) was 48 ng/g. It also gave a concentration at 0.5 h (New Zealand White, rabbit, retina, Retina, free acid, subcutaneous 5 mg/kg/dose, Group 3, read-out: Retina Average) of 38.7 ng/g, a concentration at 0.5 hr (New Zealand White, rabbit, retina, Retina, sodium salt, subcutaneous 5 mg/kg/dose, Group 2, read-out: Retina Average) of 40.5 ng/g and a concentration at 1 h (New Zealand White, rabbit, retina, Retina, 1 hr, OD, free acid, subcutaneous 5 mg/kg/dose, Group 3, read-out: Retina Conc. (ng/g) OD) of 10.4 ng/g. The concentration at 1 h (New Zealand White, rabbit, retina, Retina, 1 hr, OD, sodium salt, subcutaneous 5 mg/kg/dose, Group 2, read-out: Retina Conc. (ng/g) OD) was 22.4 ng/g, the concentration at 1 h (New Zealand White, rabbit, retina, Retina, 1 hr, OS, free acid, subcutaneous 5 mg/kg/dose, Group 3, read-out: Retina Conc. (ng/g) OS) was 6.93 ng/g and the concentration at 1 h (New Zealand White, rabbit, retina, Retina, 1 hr, OS, sodium salt, subcutaneous 5 mg/kg/dose, Group 2, read-out: Retina Conc. (ng/g) OS) was 43.2 ng/g. It also gave a concentration at 1 h (New Zealand White, rabbit, retina, Retina, 1 hr, free acid, subcutaneous 5 mg/kg/dose, Group 3, read-out: Retina Average) of 10.2 ng/g, a concentration at 1 h (New Zealand White, rabbit, retina, Retina, 1 hr, sodium salt, subcutaneous 5 mg/kg/dose, Group 2, read-out: Retina Average) of 32.6 ng/g and a concentration at 2 h (New Zealand White, rabbit, retina, Retina, 2 hr, OD, free acid, subcutaneous 5 mg/kg/dose, Group 3, read-out: Retina Conc. (ng/g) OD) of 6.31 ng/g. It also gave a concentration at 2 h (New Zealand White, rabbit, retina, Retina, 2 hr, OD, sodium salt, subcutaneous 5 mg/kg/dose, Group 2, read-out: Retina Conc. (ng/g) OD) of 15 ng/g, a concentration at 2 h (New Zealand White, rabbit, retina, Retina, 2 hr, OS, free acid, subcutaneous 5 mg/kg/dose, Group 3, read-out: Retina Conc. (ng/g) OS) of 6.93 ng/g and a concentration at 2 h (New Zealand White, rabbit, retina, Retina, 2 hr, OS, sodium salt, subcutaneous 5 mg/kg/dose, Group 2, read-out: Retina Conc. (ng/g) OS) of 17.8 ng/g. For the same compound, the concentration at 2 h (New Zealand White, rabbit, retina, Retina, 2 hr, free acid, subcutaneous 5 mg/kg/dose, Group 3, read-out: Retina Average) was 10.5 ng/g, the concentration at 2 h (New Zealand White, rabbit, retina, Retina, 2 hr, sodium salt, subcutaneous 5 mg/kg/dose, Group 2, read-out: Retina Average) was 16.4 ng/g and the concentration at 4 h (New Zealand White, rabbit, retina, Retina, 4 hr, OD, sodium salt, subcutaneous 5 mg/kg/dose, Group 2, read-out: Retina Conc. (ng/g) OD) was 19.7 ng/g. The concentration at 4 h (New Zealand White, rabbit, retina, Retina, 4 hr, free acid, subcutaneous 5 mg/kg/dose, Group 3, read-out: Retina Average) was 35.3 ng/g, the concentration at 4 h (New Zealand White, rabbit, retina, Retina, 4 hr, sodium salt, subcutaneous 5 mg/kg/dose, Group 2, read-out: Retina Average) was 19.7 ng/g and the concentration at 0.5 h (New Zealand White, rabbit, retina, TABLE 16: Retina, free acid, subcutaneous 5 mg/kg/dose, Group 3, read-out: Retina Average) was 38.7 ng/g. It also gave a concentration at 1 h (New Zealand White, rabbit, retina, TABLE 16: Retina, 1 hr, OD, free acid, subcutaneous 5 mg/kg/dose, Group 3, read-out: Retina Conc. (ng/g) OD) of 10.4 ng/g, a concentration at 1 h (New Zealand White, rabbit, retina, TABLE 16: Retina, 1 hr, OS, free acid, subcutaneous 5 mg/kg/dose, Group 3, read-out: Retina Conc. (ng/g) OS) of 6.93 ng/g and a concentration at 1 h (New Zealand White, rabbit, retina, TABLE 16: Retina, 1 hr, free acid, subcutaneous 5 mg/kg/dose, Group 3, read-out: Retina Average) of 10.2 ng/g. The concentration at 2 h (New Zealand White, rabbit, retina, TABLE 16: Retina, 2 hr, OD, free acid, subcutaneous 5 mg/kg/dose, Group 3, read-out: Retina Conc. (ng/g) OD) was 6.31 ng/g, the concentration at 2 h (New Zealand White, rabbit, retina, TABLE 16: Retina, 2 hr, OS, free acid, subcutaneous 5 mg/kg/dose, Group 3, read-out: Retina Conc. (ng/g) OS) was 6.93 ng/g and the concentration at 2 h (New Zealand White, rabbit, retina, TABLE 16: Retina, 2 hr, free acid, subcutaneous 5 mg/kg/dose, Group 3, read-out: Retina Average) was 10.5 ng/g. For the same compound, the concentration at 4 h (New Zealand White, rabbit, retina, TABLE 16: Retina, 4 hr, free acid, subcutaneous 5 mg/kg/dose, Group 3, read-out: Retina Average) was 35.3 ng/g, the “Retina Conc. (ng/mL) OD” value (Retina homogenate, 4 hr, OD, free acid, subcutaneous 5 mg/kg/dose, Group 3) was “BLOQ (Below the limit of quantitation (0.5 ng/mL))” and the “Retina Conc. (ng/mL) OS” value (Retina homogenate, 4 hr, OS, sodium salt, subcutaneous 5 mg/kg/dose, Group 2) was “BLOQ (Below the limit of quantitation (0.5 ng/mL))”. For the same compound, the “Cornea Conc. (ng/mL) OS” value (1 hr, OS, free acid, subcutaneous 5 mg/kg/dose, Group 3) was “BLOQ (Below the limit of quantitation (0.5 ng/mL))”, the “Cornea Conc. (ng/mL) OS” value (2 hr, OS, free acid, subcutaneous 5 mg/kg/dose, Group 3) was “BLOQ (Below the limit of quantitation (0.5 ng/mL))” and the “Retina Conc. (ng/mL) OD” value (TABLE 16: Retina homogenate, 4 hr, OD, free acid, subcutaneous 5 mg/kg/dose, Group 3) was “BLOQ (Below the limit of quantitation (0.5 ng/mL))”. For the same compound, the “rank order of exposure in aqueous and vitreous humor by route” value (intravitreal, topical ocular, subcutaneous administration) was “intravitreal>>topical ocular>subcutaneous administration”.
